Read-outs that look alike come from different tables or passages of the source.
Experiments:
[1] = Serum concentration of PZG or PZA after single oral dose in the crossover study; type: in vivo; conditions: human, 300 mg
Experimental: (§1) Eight male nonsmoking subjects aged 24-32 participated. They were normal by history, physical exam and routine laboratory analysis of blood and urine.
(§2) This was a single-blind, three-phase crossover study beginning after a 10-hour fast at 8 a.m., designated time 0 (control), when the first venipuncture occurred. In phase I, three capsules of lactose were given orally, followed by venipunctures 2 and 4 h later. In phase II, 1 week later, after a control blood specimen drawn at 8 a.m., PZG (900 mg) was given orally and blood specimens taken 2 and 4 h thereafter. In phase III, 3 weeks later, after a control blood specimen drawn at 8 a.m., PZA (300 mg) was given orally and blood specimens taken 2 and 4 h later.
(§3) Each phase consisted of taking three capsules, each containing 300 mg. In phase I, all three capsules were of lactose; in phase II, all three were PZG; and in phase III, two capsules were lactose and one PZA. All capsules appeared indistinguishable and were given to each subject who swallowed them with water in the presence of an investigator.
(§4) Once obtained, blood specimens were immediately spun. Refrigerated serum or plasma was analyzed within 24 h for glucose, insulin, electrolytes, blood urea nitrogen, creatinine, liver function tests, triglycerides, total cholesterol, high-density lipoprotein (HDL) cholesterol, low-density lipoprotein (LDL) cholesterol, very-low-density lipoprotein (VLDL) cholesterol, free fatty acids, and fibrinogen.

[2] = system: cutaneous vasomotor reaction of blush area; assay: Cutaneous vasomotor response (and tolerability) after a single oral dose in 8 male volunteers; type: in vivo, human; set-up: key to Cutaneous vasomotor response, Score (0-6), Mean: graded 0 = not observed to 6 = most severe reaction
Experimental: as §1, §2
(§5) Comparisons of mean serum or plasma concentrations ±SD during placebo, PZG and PZA phases are presented in Table 1 for glucose, insulin, C-peptide, free fatty acids and norepinephrine. Comparisons of mean serum or plasma concentrations ±SD during these three phases are presented in Table 2 for triglycerides, VLDL, LDL, HDL, total cholesterol, fibrinogen and serum PZG and PZA concentrations. Note the close agreement of serum PZG and PZA concentrations at 2 h and also at 4 h after their administration. Table 3 compares mean serum or plasma concentrations ±SD of renin, angiotensin I, adlosterone, potassium, urea and uric acid during the three phases of the study. […] In an earlier pilot experiment to determine serum PZA concentrations following different PZA doses, a first subject ([…]) after a single oral dose of 300 mg PZA developed unexpectedly a typical cutaneous vasomotor reaction of their blush area which included flushed, warm skin of face, neck and shoulders with a mild rash for about 90 min. […] They described the reaction variously as warm redness or flushed head and neck, rash and itching (Table 4). These reactions, which were graded from 6 (most severe) to 0 (not observed), lasted from 30 min in 3 subjects to 4 h in 1 subject. […] No significant correlation occurred between score of reaction (effect+duration) and PZA peak blood concentration among the subjects (r=0.281) (Table 4).
(§6) ^1 Score = warm + redness (flush) + rash + itching + duration. Duration
(§7) as 0.5 h, 1, 2, 4 h (reaction and duration as noted).

[3] = in vivo; cited from earlier work
[4] = system: cutaneous vasomotor reaction of blush area; assay: Exploratory (pilot) study: serum concentrations and cutaneous vasomotor reaction after different oral PZA doses in two subjects; type: in vivo, human
Experimental: as §5, §6, §7

[5] = as above; type: in vivo, human; conditions: human, serum, po, exploratory study; for concentration at 1 h: read-out: Serum PZG, 1 h; for concentration at 2 h: read-out: Serum PZG, 2 h
Experimental: as §5, §6, §7

[6] = Single-blind, three-phase crossover study of single oral doses: blood analyses of metabolic, hormonal and electrolyte parameters in 8 normal male subjects; type: in vivo, human; conditions: for Free fatty acids, mean / Angiotensin I, mean / Renin, mean / C-peptide, mean / Potassium, mean / Uric acid, mean / Aldosterone, mean / Insulin, mean / Urea, mean / VLDL Cholesterol, mean / Norepinephrine, mean / HDL Cholesterol, mean / Glucose, mean / Triglycerides, mean / LDL Cholesterol, mean / Total cholesterol, mean / Fibrinogen, mean: 8 normal subjects; for Free fatty acids, mean: 0 h: PZG 0.47, PZA 0.51; for Angiotensin I, mean: 0 h: PZG 0.84, PZA 0.66; for Renin, mean: 0 h: PZG 1.0, PZA 1.5; for C-peptide, mean: 0 h: PZG 1.1, PZA 1.2; for Potassium, mean: 0 h: PZG 4.2, PZA 4.0; for Uric acid, mean: 0 h: PZG 6.0, PZA 5.6; for Aldosterone, mean: 0 h: PZG 8.6, PZA 13.6; for Insulin, mean: 0 h: PZG 8.8, PZA 5.4; for Urea, mean: 0 h: PZG 17, PZA 17; for VLDL Cholesterol, mean: 0 h: PZG 20, PZA 17; for Norepinephrine, mean: 0 h: PZG 37, PZA 75; for HDL Cholesterol, mean: 0 h: PZG 41, PZA 46; for Glucose, mean: 0 h: PZG 87, PZA 84; for Triglycerides, mean: 0 h: PZG 101, PZA 86; for LDL Cholesterol, mean: 0 h: PZG 107, PZA 104; for Total cholesterol, mean: 0 h: PZG 168, PZA 167; for Fibrinogen, mean: 0 h: PZG 266, PZA 293
Experimental: A three-phase study, where single oral doses of placebo, followed in one week by 900 mg of pyrazinoylguanidine (PZG), followed in three weeks by 300 mg of pyrazinoic acid (PZA), involving normal male subjects, was carried out to compare and contrast metabolic effects of single doses of PZG and PZA. A purpose of the study was to determine whether the metalbolic effects observed after 3 and also 21 days of PZG administration in patients with renal disease or with diabetes also occurred after a single oral dose. […]
as §1, §2, §3, §4
Repeated measures of analysis of variance were used to compare each subject's placebo, PZG and PZA phase. Two-tailed Student t-tests were performed between groups. All results are reported as means ±SD. Statistical significance was considered when p<0.05. The results are illustrated in Tables 1-4.

[7] = 2 h after single oral dose (PZG 900 mg, PZA 300 mg)
[8] = 4 h after single oral dose (PZG 900 mg, PZA 300 mg)

concentration at 2 h ([1]; 2 h after single oral dose (PZG 900 mg, PZA 300 mg), 8 normal subjects, read-out: Serum concentration of PZG or PZA, mean): 5000 ng/mL | concentration at 4 h ([1]; 4 h after single oral dose (PZG 900 mg, PZA 300 mg), 8 normal subjects): 3000 ng/mL | concentration at 2 h ([1]; single 300-mg dose of PZA, individual subjects one, read-out: PZA 2-hour serum conc): 5600 ng/mL | concentration at 2 h ([1]; single 300-mg dose of PZA, mean of 8 male volunteers, read-out: PZA 2-hour serum conc, Mean): 4960 ng/mL | Cutaneous vasomotor response, Score (0-6), exploratory study ([4]; subject two, single oral dose 600 mg): 0 | cutaneous vasomotor reaction ([4]; subject two, single oral dose of 600 mg PZA): no cutaneous vasomotor reaction | Cutaneous vasomotor response, Score (0-6), exploratory study ([4]; subject, single oral dose 300 mg): 6 | duration of cutaneous vasomotor reaction ([4]; subject, single oral dose of 300 mg PZA, face, neck and shoulders with mild rash): about 90 min | half-life ([5]; subject two, 600 mg): 5 h | concentration at 1 h ([5]; subject two, 600 mg): 10200 ng/mL | concentration at 2 h ([5]; subject two, 600 mg): 12000 ng/mL | half-life ([5]; subject, 300 mg): 3 h | concentration at 1 h ([5]; subject, 300 mg): 6200 ng/mL | concentration at 2 h ([5]; subject, 300 mg): 4800 ng/mL | Potassium, mean [6, 7]: 4.6 meg/l | Uric acid, mean [6, 7]: 6.3 mg/dL | Potassium, mean [6, 8]: 4.3 meg/l | Uric acid, mean [6, 8]: 6.2 mg/dL | effect on potassium blood concentrations ([6]; single oral dose, within 4 h): not changed | effect on uric acid plasma concentration ([6]; single oral dose, within 4 h): increased
SMILES: O=C(O)c1cnccn1 [PZA, pyrazinoic acid]
onset of cutaneous reaction relative to peak serum concentration ([2]; 300 mg PZA): the onset preceded peak serum PZA concentrations | subjects that responded with a cutaneous vasomotor reaction ([2]; 300 mg PZA): 7 of 8 | seriousness of cutaneous vasomotor reactions ([2]; 300 mg PZA, 8 subjects): None of the cutaneous vasomotor reactions was serious enough to interfere with participation in the study | subjects without cutaneous vasomotor reaction ([2]; 300 mg PZA, 8 subjects): One subject among the 8 had no reaction | duration of cutaneous vasomotor reaction (longest) ([2]; 300 mg PZA, in 1 subject): 4 h | duration of cutaneous vasomotor reaction (shortest) ([2]; 300 mg PZA, in 3 subjects): 30 min | effect on blush area ([2]; PZA): transiently stimulate | Cutaneous vasomotor response, Score (0-6), Mean ([2]; single 300-mg dose of PZA, mean of 8 male volunteers): 3.25 | effect on serum triglycerides [3]: lower serum triglycerides | effect on uric acid blood concentrations [3]: increase uric acid blood concentrations | effect on mean values for serum glucose, insulin, C-peptide, triglycerides and free fatty acids ([6]; 0, 2 and 4 hours after administration): decreased | Free fatty acids, mean [6, 7]: 0.10 meq/l | Angiotensin I, mean [6, 7]: 0.75 ng/ml per h | Renin, mean [6, 7]: 1.7 ng/ml per h | C-peptide, mean [6, 7]: 1.0 ng/mL | Aldosterone, mean [6, 7]: 12.3 ng/dL | Insulin, mean [6, 7]: 3.7 μlU/ml | Urea, mean [6, 7]: 17 mg/dL | VLDL Cholesterol, mean [6, 7]: 15 mg/dL | Norepinephrine, mean [6, 7]: 61 pg/mL | HDL Cholesterol, mean [6, 7]: 41 mg/dL | Glucose, mean [6, 7]: 85 mg/dL | Triglycerides, mean [6, 7]: 77 mg/dL | LDL Cholesterol, mean [6, 7]: 126 mg/dL | Total cholesterol, mean [6, 7]: 179 mg/dL | Fibrinogen, mean [6, 7]: 278 mg/dL | Free fatty acids, mean [6, 8]: 0.09 meq/l | Angiotensin I, mean [6, 8]: 0.73 ng/ml per h | Renin, mean [6, 8]: 2.1 ng/ml per h | C-peptide, mean [6, 8]: 0.7 ng/mL | Aldosterone, mean [6, 8]: 12.5 ng/dL | Insulin, mean [6, 8]: 3.7 μlU/ml | Urea, mean [6, 8]: 16 mg/dL | VLDL Cholesterol, mean [6, 8]: 14 mg/dL | Norepinephrine, mean [6, 8]: 67 pg/mL | HDL Cholesterol, mean [6, 8]: 45 mg/dL | Glucose, mean [6, 8]: 80 mg/dL | Triglycerides, mean [6, 8]: 69 mg/dL | LDL Cholesterol, mean [6, 8]: 109 mg/dL | Total cholesterol, mean [6, 8]: 168 mg/dL | Fibrinogen, mean [6, 8]: 278 mg/dL | effect on plasma concentrations of nonesterified fatty acids ([6]; PZA (Table 1)): reduce | effect on insulin, C-peptide, free fatty acids and triglyceride serum concentrations ([6]; at equivalent plasma concentrations of PZG and PZA): reduced | effect on LDL, HDL and total cholesterol ([6]; single oral dose, within 4 h): not altered systematically | effect on very-low-density lipoprotein (VLDL) ([6]; single oral dose, within 4 h): decreased | effect on plasma norepinephrine ([6]; single oral dose, not statistically significant): did not elevate

From US6323203A, “Composition and method for treating diabetes” (Beyer; Camille F., priority 2000, dated 2001)
